Experiments:
[1] = Growth inhibition of human HT-29 cells after 48 hrs by MTT assay; format: functional, cell-based; conditions: HT-29, 48 h
[2] = Growth inhibition of human MDA-MB-231 cells after 48 hrs by MTT assay; format: functional, cell-based; conditions: MDA-MB-231, 48 h
[3] = test system: Mus musculus; assay: Toxicity in Kunming mouse implanted with mouse 4T1 cells assessed as body weight loss at 1 mg/kg, ip administered once in 4 days for 14 days measured during compound dosing; format: organism-based; conditions: in vivo

| Structure (SMILES) | IC50 [1] | IC50 [2] | Activity [3] |
| --- | --- | --- | --- |
| COc1cc(/C=C/c2ccc(NC(=O)/C=C/c3ccc(C(F)(F)F)cc3)cc2)cc(OC)c1 | 1.78 µM | 3.52 µM |  |
| COc1cccc2c1C(=O)c1c(O)c3c(c(O)c1C2=O)C[C@@](O)(C(=O)CO)C[C@@H]3O[C@H]1C[C@H](N)[C@H](O)[C@H](C)O1 [DOXORUBICIN] |  |  | Toxic |
| COc1cc(/C=C/c2ccc(NC(=O)/C=C/c3ccccc3F)cc2)cc(OC)c1 | 2.82 µM | 2.38 µM |  |
| COc1cc(/C=C/c2ccc(NC(=O)/C=C/c3cc(OC)c(O)c(OC)c3)cc2)cc(OC)c1 | 3.08 µM | 7.13 µM |  |
| COc1cc(/C=C/c2ccc(NC(=O)/C=C/c3ccc([N+](=O)[O-])cc3)cc2)cc(OC)c1 | 10.7 µM | 11.7 µM |  |
| COc1cc(/C=C/c2ccc(NC(=O)/C=C/c3ccc(Br)cc3)cc2)cc(OC)c1 | 5.26 µM | 6.16 µM |  |
| COc1cc(/C=C/c2ccc(OC(=O)/C=C/c3ccc([N+](=O)[O-])cc3)cc2)cc(OC)c1 | > 20 µM | 18 µM |  |
| COc1cc(/C=C/c2ccc(NC(=O)/C=C/c3ccccc3)cc2)cc(OC)c1 | 1.75 µM | 2.01 µM |  |
| COc1cc(/C=C/c2ccc(NC(=O)/C=C/c3ccc(F)cc3)cc2)cc(OC)c1 | 11.6 µM | 9.39 µM |  |
| COc1cc(/C=C/c2ccc(OC(=O)/C=C/c3ccccc3)cc2)cc(OC)c1 | 9.05 µM | 9.81 µM |  |
| COc1ccc(/C=C/C(=O)Nc2ccc(/C=C/c3cc(OC)cc(OC)c3)cc2)cc1 | 5.96 µM | 4.23 µM |  |
| COc1cc(/C=C/c2ccc(NC(=O)/C=C/c3ccc(O)c(O)c3)cc2)cc(OC)c1 | 1.56 µM | 4.23 µM |  |

Reference: ChEMBL document CHEMBL3875178, “Discovery of oral-available resveratrol-caffeic acid based hybrids inhibiting acetylated and phosphorylated STAT3 protein” (Eur J Med Chem, 2016)
